From US20170107229A1, “SUBSTITUTED TETRAHYDROPYRIDOTHIENOPYRIMIDINES” (BAYER PHARMA AKTIENGESELLSCHAFT, priority 2014, published 2017)

Biological target: T1, human full-length MKNK1 (Homo sapiens, UniProt Q9BUB5, T385D)
T1 construct: GST (N); purchased Carna Biosciences 02-145; host or cells: insect cells (baculovirus expression system)
Experiment: MKNK1 kinase high ATP assay (TR-FRET)
Format: biochemical
Settings: high ATP (2 mM final), 15 min preincubation with enzyme, GST-MKNK1 (T344D)
Experimental: MKNK1-inhibitory activity at high ATP of compounds of the present invention after their preincubation with MKNK1 was quantified employing the TR-FRET-based MKNK1 high ATP assay as described in the following paragraphs.
A recombinant fusion protein of Glutathione-S-Transferase (GST, N-terminally) and human full-length MKNK1 (amino acids 1-424 and T344D of accession number BAA 19885.1), expressed in insect cells using baculovirus expression system and purified via glutathione sepharose affinity chromatography, was purchased from Carna Biosciences (product no 02-145) and used as enzyme. As substrate for the kinase reaction the biotinylated peptide biotin-Ahx-IKKRKLTRRKSLKG (C-terminus in amide form) was used, which can be purchased e.g. from the company Biosyntan (Berlin-Buch, Germany).
For the assay 50 nL of a 100fold concentrated solution of the test compound in DMSO was pipetted into a black low volume 384well microtiter plate (Greiner Bio-One, Frickenhausen, Germany), 2 μL of a solution of MKNK1 in aqueous assay buffer [50 mM HEPES pH 7.5, 5 mM MgCl2, 1.0 mM dithiothreitol, 0.005% (v/v) Nonidet-P40 (Sigma)] was added and the mixture was incubated for 15 min at 22° C. to allow pre-binding of the test compounds to the enzyme before the start of the kinase reaction. Then the kinase reaction was started by the addition of 3 μL of a solution of adenosine-tri-phosphate (ATP, 3.3 mM=>final conc. in the 5 μL assay volume is 2 mM) and substrate (0.1 μM=>final conc. in the 5 μL assay volume is 0.06 μM) in assay buffer and the resulting mixture was incubated for a reaction time of 30 min at 22° C. The concentration of MKNK1 was adjusted depending of the activity of the enzyme lot and was chosen appropriate to have the assay in the linear range, typical concentrations were in the range of 0.003 μg/mL. The reaction was stopped by the addition of 5 μL of a solution of TR-FRET detection reagents (5 nM streptavidine-XL665 [Cisbio Bioassays, Codolet, France] and 1 nM anti-ribosomal protein S6 (pSer236)-antibody from Invitrogen [#44921G] and 1 nM LANCE EU-W1024 labeled ProteinG [Perkin-Elmer, product no. AD0071]) in an aqueous EDTA-solution (100 mM EDTA, 0.1% (w/v) bovine serum albumin in 50 mM HEPES pH 7.5).
The resulting mixture was incubated for 1 h at 22° C. to allow the formation of complex between the phosphorylated biotinylated peptide and the detection reagents. Subsequently the amount of phosphorylated substrate was evaluated by measurement of the resonance energy transfer from the Eu-chelate to the streptavidine-XL. Therefore, the fluorescence emissions at 620 nm and 665 nm after excitation at 350 nm were measured in a TR-FRET reader, e.g. a Rubystar (BMG Labtechnologies, Offenburg, Germany) or a Viewlux (Perkin-Elmer). The ratio of the emissions at 665 nm and at […] was taken as the measure for the amount of phosphorylated substrate. The data were normalised (enzyme reaction without inhibitor=0% inhibition, all other assay components but no enzyme=100% inhibition).

T1 sequence (Q9BUB5 1-424 isoform Q9BUB5-2 T344D): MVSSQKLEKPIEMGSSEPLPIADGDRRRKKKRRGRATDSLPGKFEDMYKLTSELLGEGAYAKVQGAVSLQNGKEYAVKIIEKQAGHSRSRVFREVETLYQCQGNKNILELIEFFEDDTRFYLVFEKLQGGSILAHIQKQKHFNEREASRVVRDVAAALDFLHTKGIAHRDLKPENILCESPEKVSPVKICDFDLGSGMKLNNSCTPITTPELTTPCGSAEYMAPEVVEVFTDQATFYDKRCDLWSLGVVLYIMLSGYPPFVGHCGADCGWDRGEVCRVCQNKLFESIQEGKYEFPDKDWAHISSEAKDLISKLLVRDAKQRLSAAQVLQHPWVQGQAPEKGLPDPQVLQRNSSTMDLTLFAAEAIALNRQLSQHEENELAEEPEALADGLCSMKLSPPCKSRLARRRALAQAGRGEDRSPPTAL

SMILES: CSc1cc2[nH]ncc2cc1Nc1ncnc2sc3c(c12)CCNC3 [Example 1, N-[6-(Methylsulfanyl)-1H-indazol-5-yl]-5,6,7,8-tetrahydropyrido[4′,3′:4,5]thieno[2,3-d]pyrimidin-4-amine]
- IC50: 24 nM

SMILES: CSc1cc2[nH]ncc2cc1Nc1ncnc2sc3c(c12)CCN(C(=O)OC(C)(C)C)C3 [Example 2, tert-Butyl 4-{[6-(methylsulfanyl)-1H-indazol-5-yl]amino}-5,8-dihydropyrido[4′,3′:4,5]thieno[2,3-d]pyrimidine-7(6H)-carboxylate]
- IC50: 16 nM

SMILES: CC(C)(C)OC(=O)N1CCc2c(sc3ncnc(Nc4ccc5[nH]c(=O)sc5c4)c23)C1 [Example 3, tert-Butyl 4-[(2-oxo-2,3-dihydro-1,3-benzothiazol-6-yl)amino]-5,8-dihydropyrido[4′,3′:4,5]thieno[2,3-d]pyrimidine-7(6H)-carboxylate]
- IC50: 71 nM

SMILES: COc1cc2[nH]ncc2cc1Nc1ncnc2sc3c(c12)CCN(C(=O)OC(C)(C)C)C3 [Example 4, tert-Butyl 4-[(6-methoxy-1H-indazol-5-yl)amino]-5,8-dihydropyrido[4′,3′:4,5]thieno[2,3-d]pyrimidine-7(6H)-carboxylate]
- IC50: 6 nM

SMILES: CC(C)(C)OC(=O)N1CCc2c(sc3ncnc(Nc4ccc5[nH]ncc5c4)c23)C1 [Example 5, tert-Butyl 4-(1H-indazol-5-ylamino)-5,8-dihydropyrido[4′,3′:4,5]thieno[2,3-d]pyrimidine-7(6H)-carboxylate]
- IC50: 18 nM

SMILES: CC(C)(C)OC(=O)N1CCc2c(sc3ncnc(Nc4cnc5[nH]ncc5c4)c23)C1 [Example 6, tert-Butyl 4-(1H-pyrazolo[3,4-b]pyridin-5-ylamino)-5,8-dihydropyrido[4′,3′:4,5]thieno[2,3-d]pyrimidine-7(6H)-carboxylate]
- IC50: 47 nM

SMILES: CC(C)(C)OC(=O)N1CCc2c(sc3ncnc(Nc4cc5cn[nH]c5cn4)c23)C1 [Example 7, tert-Butyl 4-(1H-pyrazolo[3,4-c]pyridin-5-ylamino)-5,8-dihydropyrido[4′,3′:4,5]thieno[2,3-d]pyrimidine-7(6H)-carboxylate]
- IC50: 79 nM

SMILES: COc1cc2[nH]ncc2cc1Nc1ncnc2sc3c(c12)CCNC3 [Example 8, N-(6-Methoxy-1H-indazol-5-yl)-5,6,7,8-tetrahydropyrido[4′,3′:4,5]thieno[2,3-d]pyrimidin-4-amine]
- IC50: 13 nM

SMILES: COc1cc2[nH]ncc2cc1Nc1ncnc2sc3c(c12)CCN(C(=O)CCCS(C)(=O)=O)C3 [Example 9, 1-{4-[(6-Methoxy-1H-indazol-5-yl)amino]-5,8-dihydropyrido[4′,3′:4,5]thieno[2,3-d]pyrimidin-7(6H)-yl}-4-(methylsulfonyl)butan-1-one]
- IC50: 2 nM

SMILES: FC(F)(F)CN1CCc2c(sc3ncnc(Nc4cnc5[nH]ncc5c4)c23)C1 [Example 10, N-(1H-Pyrazolo[3,4-b]pyridin-5-yl)-7-(2,2,2-trifluoroethyl)-5,6,7,8-tetrahydropyrido[4′,3′:4,5]thieno[2,3-d]pyrimidin-4-amine]
- IC50: 79 nM

SMILES: CSc1cc2[nH]ncc2cc1Nc1ncnc2sc3c(c12)CCN(CC(F)(F)F)C3 [Example 11, N-[6-(Methylsulfanyl)-1H-indazol-5-yl]-7-(2,2,2-trifluoroethyl)-5,6,7,8-tetrahydropyrido[4′,3′:4,5]thieno[2,3-d]pyrimidin-4-amine]
- IC50: 15 nM

SMILES: COc1cc2[nH]ncc2cc1Nc1ncnc2sc3c(c12)CCN(CC(F)(F)F)C3 [Example 12, N-(6-Methoxy-1H-indazol-5-yl)-7-(2,2,2-trifluoroethyl)-5,6,7,8-tetrahydropyrido[4′3′:4,5]thieno[2,3-d]pyrimidin-4-amine]
- IC50: 99 nM

SMILES: CN(C)C(=O)N1CCc2c(sc3ncnc(Nc4cnc5[nH]ncc5c4)c23)C1 [Example 13, N,N-Dimethyl-4-(1H-pyrazolo[3,4-b]pyridin-5-ylamino)-5,8-dihydropyrido[4′,3′:4,5]thieno[2,3-d]pyrimidine-7(6H)-carboxamide]
- IC50: 48 nM

SMILES: CN(C)C(=O)N1CCc2c(sc3ncnc(Nc4cc5cn[nH]c5cn4)c23)C1 [Example 14, N,N-Dimethyl-4-(1H-pyrazolo[3,4-c]pyridin-5-ylamino)-5,8-dihydropyrido[4′,3′:4,5]thieno[2,3-d]pyrimidine-7(6H)-carboxamide]
- IC50: 30 nM

SMILES: CN(C)C(=O)N1CCc2c(sc3ncnc(Nc4ccc5[nH]ncc5c4)c23)C1 [Example 15, 4-(1H-Indazol-5-ylamino)-N,N-dimethyl-5,8-dihydropyrido[4′,3′:4,5]thieno[2,3-d]pyrimidine-7(6H)-carboxamide]
- IC50: 32 nM

SMILES: COc1cc2[nH]ncc2cc1Nc1ncnc2sc3c(c12)CCN(C(=O)N(C)C)C3 [Example 16, 4-[(6-Methoxy-1H-indazol-5-yl)amino]-N,N-dimethyl-5,8-dihydropyrido[4′,3′:4,5]thieno[2,3-d]pyrimidine-7(6H)-carboxamide]
- IC50: 4 nM

SMILES: CN(C)C(=O)N1CCc2c(sc3ncnc(Nc4ccc5[nH]c(=O)sc5c4)c23)C1 [Example 17, N,N-Dimethyl-4-[(2-oxo-2,3-dihydro-1,3-benzothiazol-6-yl)amino]-5,8-dihydropyrido[4′,3′:4,5]thieno[2,3-d]pyrimidine-7(6H)-carboxamide]
- IC50: 88 nM

SMILES: CC(C)C(=O)N1CCc2c(sc3ncnc(Nc4ccc5[nH]c(=O)sc5c4)c23)C1 [Example 18, 6-[(7-Isobutyryl-5,6,7,8-tetrahydropyrido[4′,3′:4,5]thieno[2,3-d]pyrimidin-4-yl)amino]-1,3-benzothiazol-2(3H)-one]
- IC50: 113 nM

SMILES: CC(C)C(=O)N1CCc2c(sc3ncnc(Nc4ccc5[nH]ncc5c4)c23)C1 [Example 19, 1-[4-(1H-indazol-5-ylamino)-5,8-dihydropyrido[4′,3′:4,5]thieno[2,3-d]pyrimidin-7(6H)-yl]-2-methylpropan-1-one]
- IC50: 15 nM

SMILES: CC(C)C(=O)N1CCc2c(sc3ncnc(Nc4cc5cn[nH]c5cn4)c23)C1 [Example 20, 2-Methyl-1-[4-(1H-pyrazolo[3,4-c]pyridin-5-ylamino)-5,8-dihydropyrido[4′,3′:4,5]thieno[2,3-d]pyrimidin-7(6H)-yl]propan-1-one]
- IC50: 28 nM

SMILES: CC(C)C(=O)N1CCc2c(sc3ncnc(Nc4cnc5[nH]ncc5c4)c23)C1 [Example 21, 2-Methyl-1-[4-(1H-pyrazolo[3,4-b]pyridin-5-ylamino)-5,8-dihydropyrido[4′,3′:4,5]thieno[2,3-d]pyrimidin-7(6H)-yl]propan-1-one]
- IC50: 40 nM

SMILES: COc1cc2[nH]ncc2cc1Nc1ncnc2sc3c(c12)CCN(C(=O)C(C)C)C3 [Example 22, 1-{4-[(6-Methoxy-1H-indazol-5-yl)amino]-5,8-dihydropyrido[4′,3′:4,5]thieno[2,3-d]pyrimidin-7(6H)-yl}-2-methylpropan-1-one]
- IC50: 4 nM

SMILES: CS(=O)(=O)N1CCc2c(sc3ncnc(Nc4cc5cn[nH]c5cn4)c23)C1 [Example 23, 7-(Methylsulfonyl)-N-(1H-pyrazolo[3,4-c]pyridin-5-yl)-5,6,7,8-tetrahydropyrido[4′,3′:4,5]thieno[2,3-d]pyrimidin-4-amine]
- IC50: 25 nM

SMILES: O=C(N1CCOCC1)N1CCc2c(sc3ncnc(Nc4cc5cn[nH]c5cn4)c23)C1 [Example 24, Morpholin-4-yl[4-(1H-pyrazolo[3,4-c]pyridin-5-ylamino)-5,8-dihydropyrido[4′,3′:4,5]thieno[2,3-d]pyrimidin-7(6H)-yl]methanone]
- IC50: 28 nM

SMILES: CC(C)(C)OC(=O)N1CCc2c(sc3ncnc(Nc4cc5cn[nH]c5cc4Br)c23)C1 [Example 25, tert-Butyl 4-[(6-bromo-1H-indazol-5-yl)amino]-5,8-dihydropyrido[4′,3′:4,5]thieno[2,3-d]pyrimidine-7(6H)-carboxylate]
- IC50: 31 nM

SMILES: CN(C)C(=O)N1CCc2c(sc3ncnc(Nc4cc5cn[nH]c5cc4Cl)c23)C1 [Example 27, 4-[(6-Chloro-1H-indazol-5-yl)amino]-N,N-dimethyl-5,8-dihydropyrido[4′,3′:4,5]thieno[2,3-d]pyrimidine-7(6H)-carboxamide]
- IC50: 25 nM
